Values quoted from earlier work as cited in patent US20240158423A1, “TWO-COMPARTMENT BIPOLAR MEMBRANE ELECTRODIALYSIS OF SALTS OF AMINO ACIDS” (MONSANTO TECHNOLOGY LLC, priority 2021, published 2024).
Like-named read-outs stand apart in the source and are kept apart here.

**Q.** Which results are given for `O=C(O)CNCC(=O)O` [IDA, iminodiacetic acid]?
**A.** solubility (in water at a temperature of 10° C.): less than 4 g IDA/100 g H2O; solubility (in water at a temperature of 60° C.): approximately 14 g IDA/100 g H2O
